{"source": "patent US20050136109A1", "about": "“Extended release tablet formulations of venlafaxine” (Wyeth, priority 2003, published 2005)", "origin": "cited, not measured here", "conditions": "plural daily dosing regimen, immediate release tablets", "note": "Where a name gives a salt, the structure may show the parent alone.", "data": [{"compound": "COc1ccc(C(CN(C)C)C2(O)CCCCC2)cc1", "note": "(centres unmarked) [venlafaxine hydrochloride, 1-[2-(dimethylamino)-1-(4-methoxyphenyl)ethyl]-cyclo-hexanol]", "values": [{"measurement": "Vomiting, patients experiencing", "result": "about seventeen"}, {"measurement": "nausea, patients experiencing", "result": "about forty five"}]}]}
